Values quoted from earlier work in patent US20100111874A1, “METHOD OF CANCER DETECTION AND TREATMENT” (University of Medicine and Dentistry of New Jresey, priority 2007, published 2010).

System: human colon cancer xenografts
Conditions: combined with interferons; nude mice; cited from earlier work

CCc1c2c(nc3ccc(OC(=O)N4CCC(N5CCCCC5)CC4)cc13)-c1cc3c(c(=O)n1C2)COC(=O)[C@]3(O)CC [CPT-11]
anticancer activity in combination with interferons: synergistic
